Experimental data: US10160771B2, “Hepatitis C virus inhibitors and uses thereof in preparation of drugs” (priority 2014, dated 2018)
pEC50: −log10 of the molar value.

Test system: HCV genotype 1a (HCV-1a) replicon cells
Experiment: HCV genotype 1a replicon luciferase assay (EC50)
Assay type: cell-based, hepatitis C virus genotype 1a (H77 clone)
Conditions: Hepatitis C virus, 72 h, 3 days, luciferase (Bright-Glo)
Protocol: (§1) The EC50 and CC50 values of anti-HCV compounds were determined by HCV genotype 1a (HCV-1a) and 1B (HCV-1b) stable transfer replication (replicon) cells. The source of genotype 1a replicon is H77 clones containing K1691R, K2040R and S2204I adaptive mutations. The source of genotype 1b replicon is Con1 clones containing E1202G, T1280I and K1846T adaptive mutations.
(§2) HCV 1a (HCV-1a) and 1b (HCV-1b) gene subtype replicon system contains the related HCV gene subtype non structural protein gene, G418 resistance gene NEO and luciferase gene, which results in that HCV related protein and luciferase can be stably expressed in cells. By detecting the level of expression of luciferase gene, the level of HCV replication can be determined. Therefore, the system is used as a model for screening the activity of anti-HCV compound in vitro.
(§3) HCV Replicon Cell Lines: HCV-1a and HCV-1b Cells
(§4) The compound powder was dissolved in 100% DMSO. Then the compound was diluted 5 times with 6 points, and added into the cell plate with Echo liquid handler. Ensure the final concentration of DMSO was 0.5%. Each compound was tested in double holes. Maximum initial concentration was 100, 10 or 1 nM, 5 times dilution, 6 points.
(§5) b) Cell Culture (HCV-1a or HCV-1b Replicon Cell):
(§6) 1) absorbing the culture supernatant of the cell culture and washing the cells with 10 mL PBS.
(§7) 2) adding preheated pancreatin to the washed cell culture flasks, rotating culture bottle to make the bottom of the culture bottle uniformly covered by pancreatin, then placed into 37° C., 5% CO2 incubator to digest.
(§8) 3) suspending cells in each T150 culture flask with 10-15 mL culture medium, absorbing 0.1 mL liquid and diluting 2 times by trypan blue solution as counted.
(§9) 4) diluting cells to 8×10^4/mL with the culture medium, adding the diluted cells into the compound-containing 96-well plate (Greiner, Cat.#655090) (100 μL/well, 8000 cells/well) with automatic liquid separator (Thermo Scientific). Then place into a 37° C., 5% CO2 incubator for 3 days. Cell control well: no compound, only containing 0.5% DMSO.
(§10) 6) then adding luciferase luminescence substrate Bright-Glo, after incubation for 5 minutes, detecting the luciferase activity by chemical luminescence detection system Envison (wavelength>700 nm); analyzing the anti-HCV inhibitory activity of the compounds according to luciferase data, which was used to calculate EC50 values.
(§11) The EC50 or CC50 values were obtained by nonlinear fitting analysis on inhibition percentage (inh %) data with GraphPad Prism software.

Compound | pEC50
COC(=O)N[C@H](C(=O)N1CCC[C@H]1c1ncc(-c2ccc(-c3ccc(-c4cnc([C@@H]5[C@H]6CC[C@H](C6)[C@H]5C(=O)NN5CCCC5=O)[nH]4)cc3)cc2)[nH]1)C(C)C [AA_294_ENDOA2] | 7.00 to 8.00
COC(=O)N[C@H](C(=O)N1CCC[C@H]1c1ncc(-c2ccc(-c3ccc(-c4cnc([C@@H]5C6CCC(C6)[C@H]5C(=O)N[C@@H](C(=O)NCC(F)F)C(C)C)[nH]4)cc3)cc2)[nH]1)C(C)C (some centres unmarked) [AA_276] | 7.00 to 8.00
COC(=O)N[C@H](C(=O)N1CCC[C@H]1c1ncc(-c2ccc(-c3ccc(-c4cnc([C@@H]5[C@H]6CC[C@H](C6)[C@H]5C(=O)NCc5nccn5C)[nH]4)cc3)cc2)[nH]1)C(C)C [AA_288_ENDOA2] | 8.00 to 9.00
COC(=O)CNC(=O)[C@H](NC(=O)[C@@H]1[C@@H]2CC[C@@H](C2)[C@H]1c1ncc(-c2ccc(-c3ccc(-c4cnc([C@@H]5CCCN5C(=O)[C@@H](NC(=O)OC)C(C)C)[nH]4)cc3)cc2)[nH]1)C(C)C [AA_290_ENDOA2] | 7.00 to 8.00
COC(=O)N[C@@H](COC(C)(C)C)C(=O)N1CCC[C@H]1c1ncc(-c2ccc(-c3ccc(-c4ccc([C@@H]5CCCN5C(=O)[C@@H](NC(=O)OC)C(C)C)[nH]4)cc3)cc2)[nH]1 [AG_098] | 8.00 to 9.00
COC(=O)N[C@H](C(=O)N1CCC[C@H]1c1ncc(-c2ccc(-c3ccc(-c4cnc([C@@H]5[C@H]6CC[C@H](C6)[C@H]5C(=O)N[C@@H](C(=O)c5ccccc5)C(C)C)[nH]4)cc3)cc2)[nH]1)C(C)C [AA_293_ENDOA2] | 8.00 to 9.00

Test system: HCV genotype 1b (HCV-1b) replicon cells
Experiment: HCV genotype 1b replicon luciferase assay (EC50)
Assay type: cell-based, hepatitis C virus genotype 1b (Con1 clone)
Conditions: 3 days, luciferase (Bright-Glo)
Protocol: as §1, §2, §3, §4, §5, §6, §7, §8, §9, §10, §11

Compound | pEC50
COC(=O)N[C@H](C(=O)N1CCC[C@H]1c1ncc(-c2ccc(-c3ccc(-c4cnc(C5C6CCC(C6)[C@H]5C(=O)N(NC(=O)OC)C(C)C)[nH]4)cc3)cc2)[nH]1)C(C)C (some centres unmarked) [AA_016] | 9.00 to 10.00

Same assay, conditions: Hepatitis C virus, 72 h, 3 days, luciferase (Bright-Glo)

Compound | pEC50
COC(=O)N[C@H](C(=O)N1CCC[C@H]1c1ncc(-c2ccc(-c3ccc(-c4cnc([C@@H]5[C@H]6CC[C@H](C6)[C@H]5C(=O)NN5CCCC5=O)[nH]4)cc3)cc2)[nH]1)C(C)C [AA_294_ENDOA2] | 10.00 to 12.00
COC(=O)N[C@H](C(=O)N1CCC[C@H]1c1ncc(-c2ccc(-c3ccc(-c4cnc([C@@H]5C6CCC(C6)[C@H]5C(=O)N[C@@H](C(=O)NCC(F)F)C(C)C)[nH]4)cc3)cc2)[nH]1)C(C)C (some centres unmarked) [AA_276] | 8.00 to 9.00
COC(=O)NN(C(=O)C1C2CCC(O2)[C@H]1c1ncc(-c2ccc(-c3ccc4cc(-c5cnc(C6CCCC[C@H]6C(=O)N(NC(=O)OC)C(C)C)[nH]5)ccc4c3)cc2)[nH]1)C(C)C (some centres unmarked) [AA_092] | 7.00 to 8.00
COC(=O)N[C@H](C(=O)N1CCC[C@H]1c1ncc(-c2ccc(-c3ccc(-c4cnc([C@@H]5[C@H]6CC[C@H](C6)[C@H]5C(=O)NCc5nccn5C)[nH]4)cc3)cc2)[nH]1)C(C)C [AA_288_ENDOA2] | 10.00 to 12.00
COC(=O)CNC(=O)[C@H](NC(=O)[C@@H]1[C@@H]2CC[C@@H](C2)[C@H]1c1ncc(-c2ccc(-c3ccc(-c4cnc([C@@H]5CCCN5C(=O)[C@@H](NC(=O)OC)C(C)C)[nH]4)cc3)cc2)[nH]1)C(C)C [AA_290_ENDOA2] | 9.00 to 10.00
COC(=O)N[C@@H](COC(C)(C)C)C(=O)N1CCC[C@H]1c1ncc(-c2ccc(-c3ccc(-c4ccc([C@@H]5CCCN5C(=O)[C@@H](NC(=O)OC)C(C)C)[nH]4)cc3)cc2)[nH]1 [AG_098] | 10.00 to 12.00
COC(=O)N[C@H](C(=O)N1CCC[C@H]1c1ncc(-c2ccc(-c3ccc(-c4cnc([C@@H]5[C@H]6CC[C@H](C6)[C@H]5C(=O)N[C@@H](C(=O)c5ccccc5)C(C)C)[nH]4)cc3)cc2)[nH]1)C(C)C [AA_293_ENDOA2] | 10.00 to 12.00
COC(=O)N[C@H](C(=O)N1CCC[C@H]1c1ncc(-c2ccc(-c3ccc(-c4cnc(C5=C(C(=O)N(CC(=O)O)C(C)C)CCC5)[nH]4)cc3)cc2)[nH]1)C(C)C [AA_047] | 7.00 to 8.00
COCCCNC(=O)[C@@H]1CCCCC1c1ncc(-c2ccc(-c3ccc(-c4cnc([C@@H]5CCCN5C(=O)[C@@H](NC(=O)OC)C(C)C)[nH]4)cc3)cc2)[nH]1 (some centres unmarked) [AA_116] | 8.00 to 9.00
COC(=O)N[C@H](C(=O)N1CCC[C@H]1c1ncc(-c2ccc3cc(-c4ccc(-c5cnc([C@@H]6CCCC[C@@H]6C(=O)N(NC(=O)OC)C(C)C)[nH]5)cc4)ccc3c2)[nH]1)C(C)C [AA_090_A] | 8.00 to 9.00
COC(=O)N[C@H](C(=O)N1CCC[C@H]1c1ncc(-c2ccc(-c3ccc(-c4cnc(C5=C(C(=O)N(CC(=O)NC6CC6)C(C)C)CCC5)[nH]4)cc3)cc2)[nH]1)C(C)C [AA_064] | 8.00 to 9.00
COC(=O)N[C@H](C(=O)N1CCC[C@H]1c1ncc(-c2ccc(-c3ccc(-c4cnc(C5CCCC[C@H]5C(=O)N5CCNC(=O)C5)[nH]4)cc3)cc2)[nH]1)C(C)C (some centres unmarked) [AA_054] | 9.00 to 10.00
COC(=O)N[C@H](C(=O)N1CCC[C@H]1c1ncc(-c2ccc(-c3ccc(-c4cnc(C5C6CCC(O6)[C@H]5C(=O)N(NC(=O)OC)C(C)C)[nH]4)cc3)cc2)[nH]1)C(C)C (some centres unmarked) [AA_095] | 8.00 to 9.00
COC(=O)N[C@H](C(=O)N1CCC[C@H]1c1ncc(-c2ccc3cc(-c4ccc(-c5cnc([C@H]6C7CCC(O7)[C@H]6C(=O)N(NC(=O)OC)C(C)C)[nH]5)cc4)ccc3c2)[nH]1)C(C)C (some centres unmarked) [AA_106] | 7.00 to 8.00
COC(=O)N[C@H](C(=O)N1CCC[C@H]1c1ncc(-c2ccc(-c3ccc(-c4cnc(C5CCCC[C@H]5C(=O)N5CCCCC5)[nH]4)cc3)cc2)[nH]1)C(C)C (some centres unmarked) [AA_057] | 7.00 to 8.00
COCCNC(=O)[C@@H]1CCCCC1c1ncc(-c2ccc(-c3ccc(-c4cnc([C@@H]5CCCN5C(=O)[C@@H](NC(=O)OC)C(C)C)[nH]4)cc3)cc2)[nH]1 (some centres unmarked) [AA_114] | 8.00 to 9.00

Compound | pEC50
COC(=O)N[C@H](C(=O)N1CCC[C@H]1c1ncc(-c2ccc(-c3ccc(-c4cnc(C5=C(C(=O)NC(C)C)CCC5)[nH]4)cc3)cc2)[nH]1)C(C)C [AA_027] | 7.00 to 8.00
COC(=O)N[C@H](C(=O)N1CCC[C@H]1c1ncc(-c2ccc3cc(-c4ccc(-c5cnc([C@@H]6C7CCC(O7)[C@@H]6C(=O)N(NC(=O)OC)C(C)C)[nH]5)cc4)ccc3c2)[nH]1)C(C)C (some centres unmarked) [AA_107] | 7.00 to 8.00
COC(=O)N[C@H](C(=O)N1CCC[C@H]1c1ncc(-c2ccc3cc(-c4cnc(C5CCCC[C@H]5C(=O)N(NC(=O)OC)C(C)C)[nH]4)ccc3c2)[nH]1)C(C)C (some centres unmarked) [AA_079] | 7.00 to 8.00
COC(=O)CN(C(=O)[C@@H]1CCCCC1c1ncc(-c2ccc(-c3ccc(-c4cnc([C@@H]5CCCN5C(=O)[C@@H](NC(=O)OC)C(C)C)[nH]4)cc3)cc2)[nH]1)C(C)C (some centres unmarked) [AA_063] | 8.00 to 9.00
COC(=O)N[C@H](C(=O)N1CCC[C@H]1c1ncc(-c2ccc3cc(-c4ccc(-c5cnc([C@H]6CCCC[C@H]6C(=O)N(NC(=O)OC)C(C)C)[nH]5)cc4)ccc3c2)[nH]1)C(C)C [AA_090_B] | 8.00 to 9.00
COC(=O)N[C@H](C(=O)N1CCC[C@H]1c1ncc(-c2ccc(-c3ccc(-c4cnc(C5C6C=CC(C6)[C@H]5C(=O)N(NC(=O)OC)C(C)C)[nH]4)cc3)cc2)[nH]1)C(C)C (some centres unmarked) [AA_032] | 9.00 to 10.00
COC(=O)N[C@H](C(=O)N1CCC[C@H]1c1ncc(-c2ccc(-c3ccc(-c4cnc(C5CCCC[C@H]5C(=O)N5CCOCC5)[nH]4)cc3)cc2)[nH]1)C(C)C (some centres unmarked) [AA_056] | 8.00 to 9.00
COC(=O)N[C@H](C(=O)N1CCC[C@H]1c1ncc(-c2ccc(-c3ccc([C@@H](C)NC(=O)[C@H]4CCCC[C@H]4C(=O)N(NC(=O)OC)C(C)C)cc3)cc2)[nH]1)C(C)C [AA_096] | 7.00 to 8.00
COC(=O)NC(C(=O)N1CCC[C@H]1c1ncc(-c2ccc(-c3ccc4cc(-c5cnc(C6CCCC[C@H]6C(=O)N(NC(=O)OC)C(C)C)[nH]5)ccc4c3)cc2)[nH]1)C1CCOC1 (some centres unmarked) [AA_076] | 8.00 to 9.00
COC(=O)N[C@H](C(=O)N1CCC[C@H]1c1ncc(-c2ccc(-c3ccc([C@H](C)NC(=O)[C@H]4CCCC[C@H]4C(=O)N(NC(=O)OC)C(C)C)cc3)cc2)[nH]1)C(C)C [AA_097] | 7.00 to 8.00
COC(=O)NC(C(=O)C1CCCCC1c1ncc(-c2ccc(-c3ccc(-c4cnc(C5CCCC[C@H]5C(=O)N(NC(=O)OC)C(C)C)[nH]4)cc3)cc2)[nH]1)C(C)C (some centres unmarked) [AA_029] | 7.00 to 8.00
CNC(=O)CN(C(=O)C1=C(c2ncc(-c3ccc(-c4ccc(-c5cnc([C@@H]6CCCN6C(=O)[C@@H](NC(=O)OC)C(C)C)[nH]5)cc4)cc3)[nH]2)CCC1)C(C)C [AA_065] | 8.00 to 9.00
COC(=O)N[C@H](C(=O)N1CCC[C@H]1c1ncc(-c2ccc(-c3ccc(-c4cnc(C5CCCC[C@H]5C(=O)NCC5CC5)[nH]4)cc3)cc2)[nH]1)C(C)C (some centres unmarked) [AA_115] | 8.00 to 9.00
COC(=O)N[C@H](C(=O)N1CCC[C@H]1c1ncc(-c2ccc(-c3ccc(-c4cnc(C5CCCC[C@H]5C(=O)N5CCCC5)[nH]4)cc3)cc2)[nH]1)C(C)C (some centres unmarked) [AA_055] | 8.00 to 9.00
COC(=O)NC(C(=O)[C@@H]1CCCCC1c1ncc(-c2ccc(-c3ccc4c(c3)cc3n4C(c4ccc(F)cc4)Oc4cc(-c5cnc([C@@H]6CCCN6C(=O)[C@@H](NC(=O)OC)C(C)C)[nH]5)ccc4-3)cc2)[nH]1)C(C)C (some centres unmarked) [AA_089] | 8.00 to 9.00
